# Data reported in the supplement of paper PMC11061612.
# How the values were obtained:
# [1] = tested on: RVH-421 (Melanoma); assay: Bliss excess, mean over the matrix (fraction); higher = more synergy
# Procedure, shortened: (§1)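 Cell lines grown in DMEM/F12 or RPMI with 10% FBS were plated in 1536-well plates and held 24 hours at 37°C, 5% CO2 before 72 hours of exposure to two-drug dose matrices, with DMSO typically at 0.2%. CellTiter-Glo 2.0 luminescence gave viability, which was converted to inhibition. Vehicle wells were set to 0 and blank wells to 1. Combination Emax is the second-highest inhibition in the matrix, and Bliss excess is the observed combination effect minus the expected EA + EB − EA·EB, where EA and EB are the single-agent effects.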
# [2] = tested on: SNU-1 (Gastric Carcinoma); assay: combination Emax (second highest fraction inhibited in the dose matrix, 72 h); higher = more inhibition; extreme values may be limits of the assay
# Procedure, shortened: as §1
# [3] = tested on: HT-1197 (Bladder Carcinoma); assay: as above
# Procedure, shortened: as §1
# [4] = tested on: RVH-421 (Melanoma); assay: as above
# Procedure, shortened: as §1
# [5] = tested on: NCI-H2009 (Lung Adenocarcinoma); assay: as above
# Procedure, shortened: as §1
# [6] = tested on: COR-L105 (Lung Adenocarcinoma); assay: as above
# Procedure, shortened: as §1
# [7] = tested on: C2BBe1 (Colorectal Carcinoma); assay: as above
# Procedure, shortened: as §1
# [8] = tested on: NCI-H1435 (Non-Small Cell Lung Carcinoma); assay: as above
# Procedure, shortened: as §1
# [9] = tested on: A375 (Melanoma); assay: as above
# Procedure, shortened: as §1
# [10] = tested on: C32 (Melanoma); assay: as above
# Procedure, shortened: as §1
# [11] = tested on: Daudi (Burkitt's Lymphoma); assay: as above
# Procedure, shortened: as §1
# [12] = tested on: JJN-3 (Plasma Cell Myeloma); assay: as above
# Procedure, shortened: as §1
# [13] = tested on: SK-N-DZ (Neuroblastoma); assay: as above
# Procedure, shortened: as §1
# [14] = tested on: L-363 (Plasma Cell Myeloma); assay: as above
# Procedure, shortened: as §1
# [15] = tested on: HT-144 (Melanoma); assay: as above
# Procedure, shortened: as §1
# [16] = tested on: SK-MEL-24 (Melanoma); assay: as above
# Procedure, shortened: as §1
# [17] = tested on: MDA-MB-175-VII (Breast Carcinoma); assay: as above
# Procedure, shortened: as §1
# [18] = tested on: TOV-21G (Ovarian Carcinoma); assay: as above
# Procedure, shortened: as §1
# 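Wherever Bliss excess, mean over the matrix is given: after 72 h of two-drug dosing.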
Compound,Bliss excess [1],combination Emax [2],combination Emax [3],combination Emax [4],combination Emax [5],combination Emax [6],combination Emax [7],combination Emax [8],combination Emax [9],combination Emax [10],combination Emax [11],combination Emax [12],combination Emax [13],combination Emax [14],combination Emax [15],combination Emax [16],combination Emax [17],combination Emax [18]
"Cc1c2c(nn1C)CSCc1cc(n(C)n1)CSc1cc(c3ccccc3c1)OCCCc1c(C(=O)O)n(C)c3c-2c(Cl)ccc13 [AZD5991] + Cc1cc2ncnn2cc1Nc1ncc2c(n1)n(C1CCOCC1)c(=O)n2C [AZD7648] (first compound max 1 µM, 7x7, partner max 10 µM)",-0.0432,0.485,0.267,0.255,0.147,0.33,0.356,0.211,0.331,0.198,0.328,1,0.207,1,0.885,0.232,0.263,
"COc1nnc2ccc(N3CCC(c4ccc(OCCN5CCN(C)C(=O)[C@H]5C)cc4)CC3)nn12 [AZD5153] + C[C@@H]1COCCN1C2=NC(=NC(=C2)C3(CC3)[S@](=N)(=O)C)C4=C5C=CNC5=NC=C4 [AZD6738] (first compound max 1 µM, 7x7, partner max 10 µM)",,0.823,0.724,,0.645,0.477,0.579,0.3,0.774,0.606,0.843,0.964,0.979,0.849,0.713,0.636,0.529,0.891
"CS(=O)(=O)CCNCc1ccc(-c2ccc3ncnc(Nc4ccc(OCc5cccc(F)c5)c(Cl)c4)c3c2)o1 [Lapatinib] + C[C@@H](Oc1cc(-c2cnn(C3CCNCC3)c2)cnc1N)c1c(Cl)ccc(F)c1Cl [Crizotinib] (first compound max 10 µM, 7x7, partner max 10 µM)",,0.857,0.536,,0.732,0.815,0.745,0.871,0.86,0.7,0.945,0.902,0.899,0.932,0.998,0.967,1,0.953
"NC1(C(=O)N[C@@H](CCO)c2ccc(Cl)cc2)CCN(c2ncnc3[nH]ccc23)CC1 [Capivasertib] + CCN(CCO)CCCOc1ccc2c(Nc3cc(CC(=O)Nc4cccc(F)c4)[nH]n3)ncnc2c1 [AZD2811] (first compound max 10 µM, 7x7, partner max 1 µM)",,0.404,0.439,,0.386,0.377,0.301,0.248,0.421,0.54,0.806,0.376,0.619,0.549,0.764,0.626,0.683,0.794
"Cc1c2c(nn1C)CSCc1cc(n(C)n1)CSc1cc(c3ccccc3c1)OCCCc1c(C(=O)O)n(C)c3c-2c(Cl)ccc13 [AZD5991] + Cn1cnc2c(F)c(Nc3ccc(Br)cc3Cl)c(C(=O)NOCCO)cc21 [Selumetinib] (first compound max 1 µM, 7x7, partner max 3 µM)",-0.0194,0.605,0.321,0.449,0.526,0.463,0.425,0.26,0.895,1,0.394,1,0.252,1,1,0.705,,0.335
"NC1(C(=O)N[C@@H](CCO)c2ccc(Cl)cc2)CCN(c2ncnc3[nH]ccc23)CC1 [Capivasertib] + CC(=O)c1c(C)c2cnc(Nc3ccc(N4CCNCC4)cn3)nc2n(C2CCCC2)c1=O [Palbociclib] (first compound max 10 µM, 7x7, partner max 10 µM)",,0.621,0.551,,0.242,0.362,0.314,0.244,0.368,0.413,0.491,0.298,0.618,0.509,0.809,0.654,0.556,0.754
"Cn1cnc2c(F)c(Nc3ccc(Br)cc3Cl)c(C(=O)NOCCO)cc21 [Selumetinib] + CCN(CCO)CCCOc1ccc2c(Nc3cc(CC(=O)Nc4cccc(F)c4)[nH]n3)ncnc2c1 [AZD2811] (first compound max 10 µM, 7x7, partner max 1 µM)",,0.53,0.223,,0.676,0.387,0.484,0.106,0.718,0.999,0.387,0.551,0.621,0.116,0.786,0.558,0.485,0.48
